# Measurements taken from patent US10004701B2, “Methods and compositions for treating infection” (UNIVERSITY OF ROCHESTER, priority 2012, dated 2018).
# Structures can show the parent of a compound that is named as a salt. Where two headings read alike, the source gives them in different places.
# Columns and labels:
# Experiment in all cases: AK assay 384-well format, Prestwick library screening
# [1] = system: S. aureus strain USA300-0114; type: cell-based, Staphylococcus aureus; settings: 50 μM final drug concentration; for fold induction at 50 µM: Staphylococcus aureus, USA300, 3 h
# E. cloacae = type: cell-based, Enterobacter cloacae; settings: 50 μM final drug concentration; for fold induction at 50 µM: Enterobacter cloacae, 3 h
# P. aeruginosa = type: cell-based, Pseudomonas aeruginosa; settings: 50 μM final drug concentration; for fold induction at 50 µM: Pseudomonas aeruginosa, 3 h
# E. coli = type: cell-based, Escherichia coli; settings: 50 μM final drug concentration; for fold induction at 50 µM: Escherichia coli, 3 h
# K. pneumoniae = type: cell-based, Klebsiella pneumoniae; settings: 50 μM final drug concentration; for fold induction at 50 µM: Klebsiella pneumoniae, 3 h
# [2] = system: A. baumannii strain 98-37-09; type: cell-based, Acinetobacter baumannii; settings: 50 μM final drug concentration; for fold induction at 50 µM: Acinetobacter baumannii, 983709, 3 h
# E. faecium = type: cell-based, Enterococcus faecium; settings: 50 μM final drug concentration; for fold induction at 50 µM: Enterococcus faecium, 3 h
# [3] = cutoff for positive-scoring molecules 3-fold increase
smiles,measurement,setting,value
CCN1C[C@]2(COC)[C@H](O)C[C@H](OC)[C@@]34[C@@H]5C[C@@]6(O)[C@H](OC(=O)c7ccccc7)[C@@H]5[C@@](OC(C)=O)([C@@H]([C@H](OC)[C@H]23)[C@@H]14)[C@@H](O)[C@@H]6OC [Aconitine],fold induction at 50 µM,"[1]; planktonic S. aureus, […], read-out: AK-based Prestwick Library Screening Results, S. aureus (increase in extracellular AK activity)",0.5
same,fold induction at 50 µM,"E. cloacae; planktonic E. cloacae, […], read-out: AK-based Prestwick Library Screening Results, E. cloacae (increase in extracellular AK activity)",0.6
same,fold induction at 50 µM,"P. aeruginosa; planktonic P. aeruginosa, […], read-out: AK-based Prestwick Library Screening Results, P. aeruginosa (increase in extracellular AK activity)",0.5
same,fold induction at 50 µM,"E. coli; planktonic E. coli, […], read-out: AK-based Prestwick Library Screening Results, E. coli (increase in extracellular AK activity)",0.6
same,fold induction at 50 µM,"K. pneumoniae; planktonic K. pneumoniae, […], read-out: AK-based Prestwick Library Screening Results, K. pneumoniae (increase in extracellular AK activity)",0.5
same,fold induction at 50 µM,"[2]; planktonic A. baumannii, […], read-out: AK-based Prestwick Library Screening Results, A. baumannii (increase in extracellular AK activity)",0.6
same,fold induction at 50 µM,"E. faecium; planktonic E. faecium, […], read-out: AK-based Prestwick Library Screening Results, E. faecium (increase in extracellular AK activity)",0.9
CCCCc1cc2ccccc2c(OCCN(C)C)n1 [Dimethisoquin hydrochloride],fold induction at 50 µM,"[1]; planktonic, cutoff for positive 3-fold increase, read-out: AK-based Prestwick Library Screening Results, S. aureus (fold increase in extracellular AK activity)",1.3
same,fold induction at 50 µM,"E. cloacae; planktonic, cutoff for positive 3-fold increase, read-out: AK-based Prestwick Library Screening Results, E. cloacae (fold increase in extracellular AK activity)",1.5
same,fold induction at 50 µM,"P. aeruginosa; planktonic, cutoff for positive 3-fold increase, read-out: AK-based Prestwick Library Screening Results, P. aeruginosa (fold increase in extracellular AK activity)",1.2
same,fold induction at 50 µM,"E. coli; planktonic, cutoff for positive 3-fold increase, read-out: AK-based Prestwick Library Screening Results, E. coli (fold increase in extracellular AK activity)",1.3
same,fold induction at 50 µM,"K. pneumoniae; planktonic, cutoff for positive 3-fold increase, read-out: AK-based Prestwick Library Screening Results, K. pneumoniae (fold increase in extracellular AK activity)",1.2
same,fold induction at 50 µM,"[2]; planktonic, cutoff for positive 3-fold increase, read-out: AK-based Prestwick Library Screening Results, A. baumannii (fold increase in extracellular AK activity)",1.5
same,fold induction at 50 µM,"E. faecium; planktonic, cutoff for positive 3-fold increase, read-out: AK-based Prestwick Library Screening Results, E. faecium (fold increase in extracellular AK activity)",1
CN[C@@H]1[C@H](O[C@H]2[C@H](O[C@H]3[C@H](O)[C@@H](O)[C@H](NC(=N)N)[C@@H](O)[C@@H]3NC(=N)N)O[C@@H](C)[C@]2(O)CO)O[C@@H](CO)[C@H](O)[C@H]1O [Dihydrostreptomycin sulfate],fold induction at 50 µM,"[1]; planktonic S. aureus, 384-well, cutoff for positive-scoring molecules 3-fold increase, read-out: AK-based Prestwick Library Screening Results: S. aureus (increase in extracellular AK activity)",1.2
same,fold induction at 50 µM,"E. cloacae; planktonic E. cloacae, 384-well, cutoff for positive-scoring molecules 3-fold increase, read-out: AK-based Prestwick Library Screening Results: E. cloacae (increase in extracellular AK activity)",1.3
same,fold induction at 50 µM,"P. aeruginosa; planktonic P. aeruginosa, 384-well, cutoff for positive-scoring molecules 3-fold increase, read-out: AK-based Prestwick Library Screening Results: P. aeruginosa (increase in extracellular AK activity)",0.9
same,fold induction at 50 µM,"E. coli; planktonic E. coli, 384-well, cutoff for positive-scoring molecules 3-fold increase, read-out: AK-based Prestwick Library Screening Results: E. coli (increase in extracellular AK activity)",1.2
same,fold induction at 50 µM,"K. pneumoniae; planktonic K. pneumoniae, 384-well, cutoff for positive-scoring molecules 3-fold increase, read-out: AK-based Prestwick Library Screening Results: K. pneumoniae (increase in extracellular AK activity)",0.7
same,fold induction at 50 µM,"[2]; planktonic A. baumannii, 384-well, cutoff for positive-scoring molecules 3-fold increase, read-out: AK-based Prestwick Library Screening Results: A. baumannii (increase in extracellular AK activity)",1.2
same,fold induction at 50 µM,"E. faecium; planktonic E. faecium, 384-well, cutoff for positive-scoring molecules 3-fold increase, read-out: AK-based Prestwick Library Screening Results: E. faecium (increase in extracellular AK activity)",1
C[C@@H]1[C@H](O)[C@@H](C)/C=C/C=C/C=C/C=C/C=C/C=C/C=C/[C@H](O[C@@H]2O[C@H](C)[C@@H](O)[C@H](N)[C@@H]2O)C[C@@H]2O[C@](O)(C[C@@H](O)C[C@@H](O)[C@H](O)CC[C@@H](O)C[C@@H](O)CC(=O)O[C@H]1C)C[C@H](O)[C@H]2C(=O)O [Amphotericin B],AK-based Prestwick Library Screening Results: S. aureus (increase in extracellular AK activity),"[1]; planktonic S. aureus, 384-well, cutoff for positive-scoring molecules 3-fold increase",0.5
same,AK-based Prestwick Library Screening Results: E. cloacae (increase in extracellular AK activity),"E. cloacae; planktonic E. cloacae, 384-well, cutoff for positive-scoring molecules 3-fold increase",0.5
same,AK-based Prestwick Library Screening Results: P. aeruginosa (increase in extracellular AK activity),"P. aeruginosa; planktonic P. aeruginosa, 384-well, cutoff for positive-scoring molecules 3-fold increase",0.4
same,AK-based Prestwick Library Screening Results: E. coli (increase in extracellular AK activity),"E. coli; planktonic E. coli, 384-well, cutoff for positive-scoring molecules 3-fold increase",0.5
same,AK-based Prestwick Library Screening Results: K. pneumoniae (increase in extracellular AK activity),"K. pneumoniae; planktonic K. pneumoniae, 384-well, cutoff for positive-scoring molecules 3-fold increase",0.7
same,AK-based Prestwick Library Screening Results: A. baumannii (increase in extracellular AK activity),"[2]; planktonic A. baumannii, 384-well, cutoff for positive-scoring molecules 3-fold increase",0.5
same,AK-based Prestwick Library Screening Results: E. faecium (increase in extracellular AK activity),"E. faecium; planktonic E. faecium, 384-well, cutoff for positive-scoring molecules 3-fold increase",0.9
C[N+](C)(CCOc1ccccc1)Cc1ccccc1.O=C([O-])c1cc2ccccc2cc1O [Bephenium hydroxynaphthoate],"AK-based Prestwick Library Screening Results, S. aureus (fold increase in extracellular AK activity)",[1]; [3],1.2
same,"AK-based Prestwick Library Screening Results, E. cloacae (fold increase in extracellular AK activity)",E. cloacae; [3],2.0
same,"AK-based Prestwick Library Screening Results, P. aeruginosa (fold increase in extracellular AK activity)",P. aeruginosa; [3],1.0
same,"AK-based Prestwick Library Screening Results, E. coli (fold increase in extracellular AK activity)",E. coli; [3],1.2
same,"AK-based Prestwick Library Screening Results, K. pneumoniae (fold increase in extracellular AK activity)",K. pneumoniae; [3],1.0
same,"AK-based Prestwick Library Screening Results, A. baumannii (fold increase in extracellular AK activity)",[2]; [3],0.9
same,"AK-based Prestwick Library Screening Results, E. faecium (fold increase in extracellular AK activity)",E. faecium; [3],1.0
Cl.O=c1[nH]oc2c1CCNC2 [THIP Hydrochloride],"AK-based Prestwick Library Screening Results, S. aureus (fold increase in extracellular AK activity)",[1]; […],0.6
same,"AK-based Prestwick Library Screening Results, E. cloacae (fold increase in extracellular AK activity)",E. cloacae; […],0.8
same,"AK-based Prestwick Library Screening Results, P. aeruginosa (fold increase in extracellular AK activity)",P. aeruginosa; […],0.6
same,"AK-based Prestwick Library Screening Results, E. coli (fold increase in extracellular AK activity)",E. coli; […],0.6
same,"AK-based Prestwick Library Screening Results, K. pneumoniae (fold increase in extracellular AK activity)",K. pneumoniae; […],0.6
same,"AK-based Prestwick Library Screening Results, A. baumannii (fold increase in extracellular AK activity)",[2]; […],0.6
same,"AK-based Prestwick Library Screening Results, E. faecium (fold increase in extracellular AK activity)",E. faecium; […],1.0
Nc1ccc(C(=O)NCC(=O)O)cc1 [Aminohippuric acid],fold induction at 50 µM,"[1]; planktonic, cutoff for positive-scoring molecules 3-fold increase, read-out: AK-based Prestwick Library Screening Results, S. aureus (fold increase in extracellular AK activity)",0.6
same,fold induction at 50 µM,"E. cloacae; planktonic, cutoff for positive-scoring molecules 3-fold increase, read-out: AK-based Prestwick Library Screening Results, E. cloacae (fold increase in extracellular AK activity)",0.8
same,fold induction at 50 µM,"P. aeruginosa; planktonic, cutoff for positive-scoring molecules 3-fold increase, read-out: AK-based Prestwick Library Screening Results, P. aeruginosa (fold increase in extracellular AK activity)",0.7
same,fold induction at 50 µM,"E. coli; planktonic, cutoff for positive-scoring molecules 3-fold increase, read-out: AK-based Prestwick Library Screening Results, E. coli (fold increase in extracellular AK activity)",0.7
same,fold induction at 50 µM,"K. pneumoniae; planktonic, cutoff for positive-scoring molecules 3-fold increase, read-out: AK-based Prestwick Library Screening Results, K. pneumoniae (fold increase in extracellular AK activity)",0.6
same,fold induction at 50 µM,"[2]; planktonic, cutoff for positive-scoring molecules 3-fold increase, read-out: AK-based Prestwick Library Screening Results, A. baumannii (fold increase in extracellular AK activity)",0.7
same,fold induction at 50 µM,"E. faecium; planktonic, cutoff for positive-scoring molecules 3-fold increase, read-out: AK-based Prestwick Library Screening Results, E. faecium (fold increase in extracellular AK activity)",0.9
CCCCNc1c(C(=O)OCC)c(C)nc2c1cnn2CC [Tracazolate hydrochloride],fold induction at 50 µM,"[1]; planktonic S. aureus, positive cutoff 3-fold increase, read-out: AK-based Prestwick library screening result, S. aureus (fold increase in extracellular AK activity)",0.5
same,fold induction at 50 µM,"E. cloacae; planktonic E. cloacae, positive cutoff 3-fold increase, read-out: AK-based Prestwick library screening result, E. cloacae (fold increase in extracellular AK activity)",0.7
same,fold induction at 50 µM,"P. aeruginosa; planktonic P. aeruginosa, positive cutoff 3-fold increase, read-out: AK-based Prestwick library screening result, P. aeruginosa (fold increase in extracellular AK activity)",0.6
same,fold induction at 50 µM,"E. coli; planktonic E. coli, positive cutoff 3-fold increase, read-out: AK-based Prestwick library screening result, E. coli (fold increase in extracellular AK activity)",0.5
same,fold induction at 50 µM,"K. pneumoniae; planktonic K. pneumoniae, positive cutoff 3-fold increase, read-out: AK-based Prestwick library screening result, K. pneumoniae (fold increase in extracellular AK activity)",0.6
same,fold induction at 50 µM,"[2]; planktonic A. baumannii, positive cutoff 3-fold increase, read-out: AK-based Prestwick library screening result, A. baumannii (fold increase in extracellular AK activity)",0.8
same,fold induction at 50 µM,"E. faecium; planktonic E. faecium, positive cutoff 3-fold increase, read-out: AK-based Prestwick library screening result, E. faecium (fold increase in extracellular AK activity)",1.1
